Results reported in patent US6518287B2, “Substituted imidazoles as dual histamine H1 and H3 agonists or antagonists” (Schering Corporation, priority 2000, dated 2003).

Legend:
[1] = target: T1, H3 receptors (Cavia porcellus, UniProt Q9JI35); assay: H3-Receptor Binding Assay (guinea pig brain membranes); conditions: HCl salt of the indicated compound, 3 nM [3H]R-α-methyl histamine or [3H]Nα-methyl histamine, read-out: H3 Ave Ki
T1 construct: The source of the H3 receptors in this experiment was guinea pig brain; from tissue; host or cells: guinea pig brain membranes
T1 sequence (Q9JI35 whole entry): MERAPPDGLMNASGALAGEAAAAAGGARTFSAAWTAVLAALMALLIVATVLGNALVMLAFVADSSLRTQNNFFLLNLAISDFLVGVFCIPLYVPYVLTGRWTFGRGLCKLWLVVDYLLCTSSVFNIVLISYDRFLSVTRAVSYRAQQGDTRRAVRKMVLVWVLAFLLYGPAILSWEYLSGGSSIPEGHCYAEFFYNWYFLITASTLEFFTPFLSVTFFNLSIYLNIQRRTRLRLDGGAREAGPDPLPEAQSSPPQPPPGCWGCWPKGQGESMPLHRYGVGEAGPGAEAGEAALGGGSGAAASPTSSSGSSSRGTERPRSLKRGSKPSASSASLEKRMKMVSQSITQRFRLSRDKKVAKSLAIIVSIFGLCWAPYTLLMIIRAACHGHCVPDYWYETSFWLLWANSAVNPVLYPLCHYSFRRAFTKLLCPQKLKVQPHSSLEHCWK
Method: General Procedure for H3-Receptor Binding Assay
The source of the H3 receptors in this experiment was guinea pig brain. The animals weighed 400-600 g. The brain tissue was homogenized with a solution of 50 mM Tris, pH 7.5. The final concentration of tissue in the homogenization buffer was 10% w/v. The homogenates were centrifuged at 1,000×g for 10 min. in order to remove clumps of tissue and debris. The resulting supernatants were then centrifuged at 50,000×g for 20 min. in order to sediment the membranes, which were next washed three times in homogenization buffer (50,000×g for 20 min. each). The membranes were frozen and stored at −70° C. until needed.
All compounds to be tested were dissolved in DMSO and then diluted into the binding buffer (50 mM Tris, pH 7.5) such that the final concentration was 2 μg/ml with 0.1% DMSO. Membranes were then added (400 μg of protein) to the reaction tubes. The reaction was started by the addition of 3 nM [^3H]R-α-methyl histamine (8.8 Ci/mmol) or 3 nM [^3H]N^α-methyl histamine (80 Ci/mmol) and continued under incubation at 30° C. for 30 min. Bound ligand was separated from unbound ligand by filtration, and the amount of radioactive ligand bound to the membranes was quantitated by liquid scintillation spectrometry.

[2] = target: T2, Histamine H1 receptor (Rattus norvegicus, UniProt P31390); assay: H1-Receptor Binding Assay (rat brain membranes, [3H]pyrilamine); conditions: HCl salt of the indicated compound, male Sprague-Dawley rat brain membranes, Cheng-Prusoff, read-out: H1 Ave Ki
T2 construct: The tissue source was male Sprague-Dawley rat brain; tissue Rockland Corporation, Gilbertsville, Pa; host or cells: male Sprague-Dawley rat brain membranes
T2 sequence (P31390 whole entry): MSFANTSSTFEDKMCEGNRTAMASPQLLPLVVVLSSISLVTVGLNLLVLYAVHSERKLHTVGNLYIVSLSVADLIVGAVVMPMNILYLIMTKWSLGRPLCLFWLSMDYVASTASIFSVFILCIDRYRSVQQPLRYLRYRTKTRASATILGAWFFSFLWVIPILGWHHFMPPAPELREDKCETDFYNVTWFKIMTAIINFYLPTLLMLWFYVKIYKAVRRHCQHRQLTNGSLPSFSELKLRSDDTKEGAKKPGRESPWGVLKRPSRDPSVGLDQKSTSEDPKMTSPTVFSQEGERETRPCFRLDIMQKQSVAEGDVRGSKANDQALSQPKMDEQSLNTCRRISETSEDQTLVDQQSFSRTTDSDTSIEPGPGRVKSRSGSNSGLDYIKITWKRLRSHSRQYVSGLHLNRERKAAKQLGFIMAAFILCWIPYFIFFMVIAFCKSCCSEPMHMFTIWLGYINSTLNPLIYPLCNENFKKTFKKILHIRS
Excerpt: General Procedure for H1-Receptor Binding Assay
The procedure used was based on that disclosed in V. T. Tran, R. S. L. Chang, and S. hr. Snyder, “Histamine H1 receptors identified in mammalian brain membranes with [H-3]mepyramine”, Proc. Natl. Acad. Sci. U.S.A 75 (1978) 6290-6294.
I. Tissue Preparation Protocol for Histamine H1 Receptor Binding Assay
1. The tissue source was male Sprague-Dawley rat brain. These were purchased stripped and frozen (available from Rockland Corporation, Gilbertsville, Pa.). The buffer used was ice-cold 50 mM Tris-HCl, pH 7.5. (The pH was determined at 25° C.)
2. The brains were spread out on plastic wrap on the benchtop and allowed to thaw for 10-15 min. After this, everything was kept ice-cold.
3. Two brains were put in each 50 mL round bottom centrifuge tube and 25 mL of buffer was added. Then they were broken up with a Polytron (from Brinkmann Instruments, Westbury, N.Y.) equipped with a PT-10 tip at setting 6 for 30 sec.
4. The volume in the tube was brought up to 45 mL and mixed and the particulate material was centrifuged at 1000×g (3000 rpm, SS-34 rotor) for 10 min to remove nuclei and unbroken cells.
5. Pellets were discarded and the supernatants were centrifuged 10 min at 50,000×g (20,000 rpm, SS-34 rotor).
6. The high-speed pellets were resuspended in a volume of Tris buffer equal to the original (4 mL), the contents of all tubes were pooled, and a sample was taken for BCA protein assay. The material was aliquotted, 45 mL per round-bottom tube, and the resuspension was recentrifuged. The yield of protein was approximately 20 mg/brain, so there was about 40 mg of protein per tube.
7. Pellets were frozen at −80° C.
II. H1 Histamine Receptor Binding Assay
1. FDCL and comparative compounds for assay were independently solubilized at 1 mg/ml DMSO by vortexing, or if necessary by sonication. The first dilution, 100-fold, was made in 50 mM Tris-HCl, pH 7.5, at room temperature. The three or four subsequent ten-fold serial dilutions were made in 1% DMSO/50 mM Tris-HCl, pH 7.5. Drug solutions and assay plates were kept at room temperature during the course of the assay set up.
2. Test compounds were assayed at four or five concentrations: 1, 0.1, 0.01, 0.001, and 0.0001 μg/ml. Twenty μl of drug solution was pipeted into each of three wells.
3. [^3H]Pyrilamine was diluted approximately 2000-fold with ice-cold […] Tris-HCl, pH 7.5 (to a working concentration of 20-25 nM), and put on ice.
4. A frozen tissue pellet was thawed in a 25° C. water bath, resuspended in 50 mM Tris-HCl, pH 7.5, at 1.7-2 mg/ml by brief break-up on the Polytron, and put on ice.
5. Twenty μl of diluted [^3H]pyrilamine was added to each well.
6. One hundred fifty μl of tissue suspension was added to each well.
7. The top of the plate was covered and it was placed in a 25° C. shaking water bath (about 60 oscillations/min) for 30 min.
8. Samples were filtered on a Tomtec Mach 2 harvester (available from Tomtec Corporation, Orange, Conn.) through a GF/B filter mat (from Wallac, Inc., Gaithersburg, Md.) presoaked in 0.3% polyethylenimine. Each sample was thrice washed with ice-cold 50 mM Tris-HCl, pH 7.5 dried 20 sec on the Tomtec, and dried 3-4 min in a microwave oven on a paper towel. The filter was impregnated with MELTILEX brand wax scintillant (from Wallac Corporation) and counted on a Betaplate scintillation counter (from Wallac Corporation).
9. Specific binding was determined as the difference between total and nonspecific binding. The percent inhibition in the presence of inhibitor or standard was determined using the formula:
[1-(sample binding-nonspecific binding)/specific binding]×100
For compounds that inhibit more than 50% at 1 μg/ml, an IC50 value was interpolated from proximate concentrations. […]

Compound	Ki [1] [µM]	Ki [2] [µM]
Clc1ccc(C(CCNCCc2c[nH]cn2)c2ccccn2)cc1 (stereo not shown)	0.056	0.6
C[N+](C)(CCCCc1c[nH]cn1)CCC(c1ccc(Cl)cc1)c1ccccn1 (stereo not shown)	0.16	0.12
Clc1ccc(C(CCNCCCCc2c[nH]cn2)c2ccccn2)cc1 (stereo not shown)	0.01	0.254
N=C(CC(c1ccc(Cl)cc1)c1ccccn1)NCCc1c[nH]cn1 (stereo not shown)	0.008	
Clc1ccc(C(NCCCCc2c[nH]cn2)c2ccc(Cl)cc2)cc1	0.002	
O=C(CCc1c[nH]cn1)NCCC(c1ccc(Cl)cc1)c1ccccn1 (stereo not shown)	0.51	
O=C(NCCC(c1ccc(Cl)cc1)c1ccccn1)OCCc1c[nH]cn1 (stereo not shown)	0.26	
CN(CCc1c[nH]cn1)C(=O)CC(c1ccc(Cl)cc1)c1ccccn1 (stereo not shown)	0.001	
N=C(CCCc1c[nH]cn1)NCCC(c1ccc(Cl)cc1)c1ccccn1 (stereo not shown)	0.029	0.201
O=C(CC(c1ccccc1)c1ccccc1)NCCCCc1c[nH]cn1	0.036	
CN(CCCCc1c[nH]cn1)CCC(c1ccc(Cl)cc1)c1ccccn1 (stereo not shown)	0.015	0.007
CN(CCCCc1c[nH]cn1)C(=O)CC(c1ccc(Cl)cc1)c1ccccn1 (stereo not shown)	0.0065	
O=C(CC(c1ccc(Cl)cc1)c1cccc[n+]1[O-])NCCCCc1c[nH]cn1 (stereo not shown)	0.0085	
O=C(CC(c1ccc(Br)cc1)c1ccccn1)NCCCCc1c[nH]cn1 (stereo not shown)	0.05	
Clc1ccc(C(NCCCCc2c[nH]cn2)c2ccccc2)cc1 (stereo not shown)	0.006	
O=C(CC(c1ccc(Cl)cc1)c1ccccn1)NCCCCc1c[nH]cn1 (stereo not shown)	0.0008	
CN(CCC(c1ccc(Cl)cc1)c1ccccn1)C(=O)CCc1c[nH]cn1 (stereo not shown)	0.26	1
O=C(NCCCCc1c[nH]cn1)C(c1ccc(Cl)cc1)c1ccc(Cl)cc1	0.0335	
O=C(/C=C(\c1ccc(Cl)cc1)c1ccccn1)NCCc1c[nH]cn1	0.037	
Clc1ccc(C(CCNCCCc2c[nH]cn2)c2ccccn2)cc1 (stereo not shown)	0.24	
CN(CCCc1c[nH]cn1)CCC(c1ccc(Cl)cc1)c1ccccn1 (stereo not shown)	0.12	0.01
O=C(CC(c1ccc(Cl)cc1)c1ccccn1)NCCc1c[nH]cn1 (stereo not shown)	0.016	
Clc1ccc(C(CCN(CCCCc2c[nH]cn2)CCCCc2c[nH]cn2)c2ccccn2)cc1 (stereo not shown)	0.023	0.0835
